Structures are written as SMILES.

Drawing on PubChem BioAssay AID493062 (The Scripps Research Institute Molecular Screening Center, 2011), this text covers EC50 for 61 molecules.

For experiment [1], the system named is 2B4/BCL-2. The experiment can be described thus: caspase activation in 2B4/MCL-1 versus 2B4/BCL-2 cells, late-stage follow-up, selectivity assay for MCL1-BIM inhibitor project, cell-based, fluorescence, assay provider data (AID 493062). The conditions noted are these: 2B4/MCL-1 caspase activation fluorescence.
Experiment [2] concerns 2B4/MCL-1. The description is as above. The settings on record: 2B4/MCL-1 caspase activation fluorescence.

By EC50 is commonly meant the midpoint of the concentration-response curve. For the molecule `Cc1ccc(-c2cc(C(=O)Nc3cccnc3)c3ccccc3n2)o1`, the EC50 in experiment [1] and in experiment [2] was more than 25 µM in each case.
On to `O=C(Nc1cccc(S(=O)(=O)NC2=NCCC2)c1)c1cc(-c2ccco2)nc2ccccc12`, for which the EC50 in experiment [1] and in experiment [2] was more than 25 µM throughout.
With `O=C(Nc1nncs1)c1cc(-c2ccco2)nc2ccccc12`, the EC50 in experiment [1] and in experiment [2] was more than 25 µM throughout.
Regarding `O=C(Nc1cccnc1)c1cc(-c2ccco2)nc2ccc(Br)cc12`, the EC50 in experiment [1] is more than 25 µM; in experiment [2], 10 µM.
In the same order, the values of `Cc1ccc(NC(=O)c2cc(-c3ccco3)nc3ccccc23)cc1S(=O)(=O)N1CCOCC1` are more than 25 µM and more than 25 µM.
In the case of `CCCCN(C(=O)c1cc(-c2ccco2)nc2ccccc12)c1c(N)n(CCC)c(=O)[nH]c1=O`, the EC50 in experiment [1] and in experiment [2] was more than 25 µM throughout.
For the molecule `COc1ccc(NC(=O)CN(C)C(=O)c2cc(-c3ccc(C)o3)nc3ccccc23)cc1`, the EC50 in experiment [1] and in experiment [2] was more than 25 µM throughout.
In the case of `Cc1ccc(-c2cc(C(=O)NCCN3CCOCC3)c3ccccc3n2)o1`, the EC50 in experiment [1] and in experiment [2] was more than 25 µM in each case.
As for `COc1ccc(Cc2nnc(NC(=O)Cc3cccs3)s2)cc1OC`, the EC50 in experiment [1] and in experiment [2] was more than 25 µM in each case.
With `CC1CCCN(C(=O)c2cc(-c3ccco3)nc3ccccc23)C1` (configuration not stated), the EC50 in experiment [1] and in experiment [2] was more than 25 µM throughout.
Turning to `O=C(NC(=S)Nc1cccc(S(=O)(=O)NC2=NCCC2)c1)c1cc(-c2ccco2)nc2ccccc12`, the EC50 in experiment [1] and in experiment [2] was more than 25 µM in each case.
Consider `COCCN(C(=O)c1cc(-c2ccco2)nc2ccccc12)c1c(N)n(Cc2ccccc2)c(=O)[nH]c1=O`, for which the EC50 in experiment [1] and in experiment [2] was more than 25 µM in each case.
Take `O=C(Nc1ccc(F)cc1F)c1cc(-c2ccco2)nc2ccccc12`: the EC50 in experiment [1] and in experiment [2] was more than 25 µM each time.
Take `COc1ccc(Cc2nnc(NC(=O)Cc3cccc(Br)c3)s2)cc1OC`: the EC50 in experiment [1] and in experiment [2] was more than 25 µM in each case.
In the case of `O=C(Cc1cccs1)Nc1nnc(Cc2ccccc2)s1`, the EC50 in experiment [1] and in experiment [2] was more than 25 µM in each case.
In the case of `CCc1nnc(NC(=O)c2cc(-c3ccco3)nc3ccccc23)s1`, the EC50 in experiment [1] and in experiment [2] was more than 25 µM each time.
Take `O=C(NCCCN1CCOCC1)c1cc(-c2ccco2)nc2ccccc12`: the EC50 in experiment [1] and in experiment [2] was more than 25 µM each time.
Turning to `Cc1cccc(NC(=O)c2cc(-c3ccco3)nc3ccc(Br)cc23)n1`, the EC50 was determined as 0.6 µM in experiment [1] and 25 µM in experiment [2].
The corresponding values for `CCCC(=O)Nc1nnc(Cc2ccccc2)s1` are more than 25 µM and more than 25 µM.
In the same order, the values of `COc1ccc(Cc2nnc(NC(=O)c3cc(-c4ccco4)nc4ccccc34)s2)cc1OC` are more than 25 µM and more than 25 µM.
In the same order, the values of `COc1ccc(Cc2nnc(NC(=O)c3cc(-c4ccc(C)o4)nc4ccccc34)s2)cc1OC` are 30 µM and 12 µM.
In the case of `CC(=O)c1cccc(NC(=O)c2cc(-c3ccco3)nc3ccccc23)c1`, the EC50 in experiment [1] and in experiment [2] was more than 25 µM in each case.
Turning to `Cc1ccc(-c2cc(C(=O)N3CC(C)CC(C)C3)c3ccccc3n2)o1` (configuration not stated), the EC50 in experiment [1] and in experiment [2] was more than 25 µM in each case.
With `COc1ccc(Cc2nnc(NC(=O)Cc3ccccc3C)s2)cc1OC`, the EC50 in experiment [1] and in experiment [2] was more than 25 µM each time.
As for `CCCn1c(N)c(N(CCOC)C(=O)c2cc(-c3ccco3)nc3ccccc23)c(=O)[nH]c1=O`, the EC50 in experiment [1] and in experiment [2] was more than 25 µM in each case.
On to `Cc1ccc(NC(=O)c2cc(-c3ccc(C)o3)nc3ccccc23)cc1`, for which the EC50 in experiment [1] and in experiment [2] was more than 25 µM each time.
In the case of `Cc1ccc(S(=O)(=O)N(C)C)cc1NC(=O)c1cc(-c2ccco2)nc2ccccc12`, the EC50 in experiment [1] and in experiment [2] was more than 25 µM throughout.
For `COc1ccc(Cc2nnc(NC(=O)Cc3ccncc3)s2)cc1OC`, the concentration for a half-maximal effect (EC50) in experiment [1] and in experiment [2] was more than 25 µM each time.
As for `COc1ccc(Cc2nnc(CC(=O)Nc3cccs3)s2)cc1`, the EC50 in experiment [1] and in experiment [2] was more than 25 µM in each case.
Take `CCOC(=O)c1cc(-c2ccco2)nc2c1c(C)nn2-c1cccc(Cl)c1`: the EC50 in experiment [1] and in experiment [2] was more than 25 µM each time.
On to `COc1ccc(Cc2nnc(NC(=O)Cc3ccccn3)s2)cc1OC`, for which the EC50 in experiment [1] and in experiment [2] was more than 25 µM each time.
`COc1cccc(NC(=O)CN(C)C(=O)c2cc(-c3ccco3)nc3ccccc23)c1`: the EC50 in experiment [1] and in experiment [2] was more than 25 µM in each case.
With `Cc1ccc(-c2cc(C(=O)Nc3ccccc3C)c3ccccc3n2)o1`, the EC50 in experiment [1] and in experiment [2] was more than 25 µM throughout.
`COc1ccc(Cc2nnc(NC(=O)Cc3c[nH]c4ccccc34)s2)cc1OC`: the EC50 in experiment [1] and in experiment [2] was more than 25 µM each time.
With `COc1ccccc1NC(=O)c1cc(-c2ccc(C)o2)nc2ccccc12`, the EC50 in experiment [1] and in experiment [2] was more than 25 µM throughout.
Regarding `COc1cccc(NC(=O)c2cc(-c3ccc(C)o3)nc3ccccc23)c1`, the EC50 in experiment [1] and in experiment [2] was more than 25 µM throughout.
Turning to `Cc1ccc(-c2cc(C(=O)Nc3cccc(S(=O)(=O)N(C)C)c3)c3ccccc3n2)o1`, the EC50 in experiment [1] and in experiment [2] was more than 25 µM throughout.
For `O=C(NC1CCC(O)CC1)c1cc(-c2ccco2)nc2ccccc12` (configuration not stated), the EC50 in experiment [1] and in experiment [2] was more than 25 µM in each case.
For `O=C(c1cc(-c2ccco2)nc2ccccc12)N1CCCC(C(F)(F)F)C1` (configuration not stated), the EC50 in experiment [1] and in experiment [2] was more than 25 µM in each case.
Turning to `COc1ccc(Cc2nnc(NC(=O)Cc3ccc(N(C)C)cc3)s2)cc1OC`, the EC50 in experiment [1] and in experiment [2] was more than 25 µM each time.
As for `COc1ccc(Cc2nnc(NC(=O)Cc3ccc4c(c3)OCO4)s2)cc1OC`, the EC50 in experiment [1] and in experiment [2] was more than 25 µM each time.
Turning to `O=C(Nc1cccc(S(=O)(=O)NC2=NCCCCC2)c1)c1cc(-c2ccco2)nc2ccccc12`, the EC50 in experiment [1] and in experiment [2] was more than 25 µM in each case.
Turning to `COc1ccc(Cc2nnc(NC(=O)Cc3cccnc3)s2)cc1OC`, the EC50 in experiment [1] and in experiment [2] was more than 25 µM each time.
Take `O=C(Nc1cccc(F)c1)c1cc(-c2ccco2)nc2ccccc12`: the EC50 in experiment [1] and in experiment [2] was more than 25 µM throughout.
Consider `COc1ccc(Cc2nnc(NC(=O)CCc3ccco3)s2)cc1OC`, for which the EC50 in experiment [1] came to 1.5 µM; in experiment [2] it was 0.8 µM.
The corresponding values for `COc1ccc(Cc2nnc(NC(=O)Cc3ccsc3)s2)cc1OC` are more than 25 µM and more than 25 µM.
In the same order, the values of `O=C(CCn1nnc2ccccc21)Nc1nnc(Cc2ccc(F)cc2)s1` are more than 25 µM and more than 25 µM.
Turning to `O=C(c1cc(-c2ccco2)nc2ccccc12)N(Cc1nnc(-c2ccc(Cl)cc2)o1)C1CC1`, the concentration giving a half-maximal response (EC50) in experiment [1] and in experiment [2] was more than 25 µM in each case.
On to `COc1ccc(Cc2nnc(NC(=O)Cc3ccc4ccccc4c3)s2)cc1OC`, for which the EC50 in experiment [1] and in experiment [2] was more than 25 µM in each case.
Take `O=C(Nc1ccccc1F)c1cc(-c2ccco2)nc2ccccc12`: the EC50 in experiment [1] and in experiment [2] was more than 25 µM in each case.
`CN(C)C(=O)c1ccc(NC(=O)c2cc(-c3ccco3)nc3ccccc23)cc1`: the EC50 in experiment [1] and in experiment [2] was more than 25 µM each time.
On to `O=C(c1cc(-c2ccco2)nc2ccccc12)N1CCN(c2ccc(F)cc2)CC1`, for which the EC50 in experiment [1] and in experiment [2] was more than 25 µM each time.
For `COc1ccc(CC(=O)Nc2nnc(Cc3ccc(OC)c(OC)c3)s2)cc1`, the EC50 in experiment [1] and in experiment [2] was more than 25 µM each time.
`Cc1ccc(-c2cc(C(=O)Nc3nccs3)c3ccccc3n2)o1`: the EC50 in experiment [1] and in experiment [2] was more than 25 µM each time.
In the case of `Cc1ccc2nc(NC(=O)c3cc(-c4ccco4)nc4ccccc34)sc2c1`, the EC50 in experiment [1] and in experiment [2] was more than 25 µM throughout.
As for `Cc1ccc(-c2cc(C(=O)NCCCn3ccnc3)c3cc(Br)ccc3n2)o1`, the EC50 in experiment [1] and in experiment [2] was more than 25 µM in each case.
Consider `Cc1ccc(-c2cc(C(=O)N3CCOCC3)c3ccccc3n2)o1`, for which the EC50 in experiment [1] and in experiment [2] was more than 25 µM throughout.
Turning to `Cc1ccc(-c2cc(C(=O)NCC(c3ccccc3)N(C)C)c3ccccc3n2)o1` (configuration not stated), the EC50 in experiment [1] and in experiment [2] was more than 25 µM each time.
As to `COC(=O)C1CCN(C(=O)c2cc(-c3ccco3)nc3ccccc23)CC1`, the EC50 in experiment [1] and in experiment [2] was more than 25 µM each time.
For the molecule `COc1ccc(Cc2nnc(NC(=O)C(=O)c3ccco3)s2)cc1OC`, the EC50 in experiment [1] and in experiment [2] was more than 25 µM throughout.
On to `O=C(Nc1ccccn1)c1cc(-c2ccco2)nc2ccc(Br)cc12`, for which the EC50 is 3 µM in experiment [1] and more than 25 µM in experiment [2].
